{
  "source": "paper PMC9312958",
  "about": "“A Novel and Selective Dopamine Transporter Inhibitor, (S)-MK-26, Promotes Hippocampal Synaptic Plasticity and Restores Effort-Related Motivational Dysfunctions” (Biomolecules, 2022)",
  "tested_on": "adult male Sprague Dawley rats",
  "test": "PROG/chow feeding choice task",
  "type": "in vivo, rat",
  "method": "Pharmacological agents: (S)-MK-26 was obtained from the Lubec Laboratory (University of Vienna, Austria) and dissolved in dimethyl sulfoxide (DMSO) (10%), Tween 80 (15%), and 0.9% saline (75%). The DMSO/Tween 80/saline mixture was administered as the vehicle control. The dose range was selected as 3.75–45.0 mg/kg based on its DAT affinity and pilot studies. It was administered 30 min before testing. TBZ (9,10-dimethoxy3-(2-methylpropyl)-1,3,4,6,7, 11b hexahydrobenzo[a]quinolizin2-one) was obtained from Tocris Bioscience (Ellisville, MO) and was dissolved in DMSO (20%) and 0.9% saline (80%) and was titrated with 1.0 N HCl until the drug was dissolved at a pH of 4.0–4.5. The DMSO/saline solution with equal amounts of HCl was administered as the vehicle control. The selected dose was 1.0mg/kg based on the previous research from our laboratory. It was administered 120 min prior to testing. […]\nBehavioral sessions were conducted in operant chambers (28 × 23 × 23 cm^3; Med Associates, Fairfax, VT) with 30 min sessions 5 days/week. […] The number of lever pressing was recorded and the amount of consumed chow was calculated by weighing the remaining food, including spillage. […]",
  "data": [
    {"smiles": "[O-][S@@+](Cc1cncs1)C(c1cccc(Cl)c1)c1cccc(Cl)c1", "note": "[(S)-MK-26, (S)-5-(((B(3-chlorophenyl)methyl)sulphinyl)methyl)thiazole]", "values": [
      {"measurement": "effect on PROG lever presses", "setting": "45.0 mg/kg i.p. alone vs vehicle, p = 0.011", "value": "statistically significant difference between the vehicle and the highest dose"},
      {"measurement": "effect on chow intake", "setting": "30.0 and 45.0 mg/kg i.p. alone vs vehicle", "value": "decreased chow intake"}
    ]}
  ]
}
